From patent publication US20240368104A1, “Novel Dialkoxynaphtho[2,3-C]Furan-1(3H)-One Derivatives and Pharmaceutical Composition For Preventing or Treating Respiratory Disease or SARS-COV-2 Infection Disease, Comprising Same” (priority 2021, published 2024)
Read-outs that look alike come from different tables or passages of the source.

Tests used:
[1] = tested on: SARS-COV-2; assay: microbe, parasite or virus in culture; type: cell-based; set-up: SI (Selectivity Index, CC50/IC50): unit not given here; settings: for SI (Selectivity Index, CC50/IC50): SARS-COV-2, values >50 assumed to be 50; for IC50: read-out: SARS-COV-2 inhibition (IC50)
[2] = in vitro; settings: African green monkey
[3] = Severe acute respiratory syndrome coronavirus 2, Vero cells, 24 hours infection

Compound	SI (Selectivity Index, CC50/IC50) [1]	IC50 ([1]; Severe acute respiratory syndrome coronavirus 2, Vero, 24 h) [µM]	CC50 [2] [µM]	IC50 [1, 3] [µM]	IC50 [1] [µM]
COc1cc2cc3c(c(-c4cc5c(cc4OC(=O)C(N)C(C)C)OCO5)c2cc1OC)C(=O)OC3.Cl (stereo in doubt) [Example 269, 6-(6,7-dimethoxy-3-oxo-1,3-dihydronaphtho[2,3-c]furan-4-yl)benzo[d][1,3]dioxol-5-yl L-valinate hydrochloride]	94.66	0.53	> 50	–	–
COc1cc2cc3c(c(N4C[C@@H](C)O[C@@H](C)C4)c2cc1OC)C(=O)OC3 [Example 2, 9-((2S,6R)-2,6-dimethylmorpholino)-6,7-dimethoxynaphtho[2,3-c]furan-1(3H)-one]	1.00	–	> 50	> 50	–
COc1cc2cc3c(c(N4CCc5sccc5C4)c2cc1OC)C(=O)OC3 [Example 3, 9-(6,7-dihydrothieno[3,2-c]pyridin-5 (4H)-yl)-6,7-dimethoxynaphtho[2,3-c]furan-1(3H)-one]	8.48	–	> 50	5.89	–
COc1cc2cc3c(c(N4CC(C)CC(C)C4)c2cc1OC)C(=O)OC3 (stereo not drawn) [Example 4, 9-(3,5-dimethylpiperidin-1-yl)-6,7-dimethoxynaphtho[2,3-c]furan-1(3H)-one]	4.45	–	> 50	11.2	–
COCCN(C)c1c2c(cc3cc(OC)c(OC)cc13)COC2=O [Example 5, 6,7-dimethoxy-9-((2-methoxyethyl)(methyl)amino)naphtho[2,3-c]furan-1(3H)-one]	1.00	–	> 50	> 50	–
CCN(CC)CCNc1c2c(cc3cc(OC)c(OC)cc13)COC2=O [Example 6, 9-((2-(diethylamino)ethyl)amino)-6,7-dimethoxynaphtho[2,3-c]furan-1(3H)-one]	1.00	–	> 50	> 50	–
COc1cc2cc3c(c(-c4cnc(N5CCN(C)CC5)nc4)c2cc1OC)C(=O)OC3 [Example 7]	3.74	–	> 50	13.4	–
COc1cc2cc3c(c(-c4cnc(N5C[C@@H](C)O[C@@H](C)C5)nc4)c2cc1OC)C(=O)OC3 [Example 8, 9-(2-((2S,6R)-2,6-dimethylmorpholino)pyrimidin-5-yl)-6,7-dimethoxynaphtho[2,3-c]furan-1(3H)-one]	17.39	–	> 50	2.87	–
COc1cc2cc3c(c(-c4ccc(N5CCSCC5)nc4)c2cc1OC)C(=O)OC3 [Example 10, 6,7-dimethoxy-9-(6-thiomorpholinopyridin-3-yl)naphtho[2,3-c]furan-1(3H)-one]	91.58	–	> 50	0.55	–
COc1cc2cc3c(c(-c4cnc(N(C)C)nc4)c2cc1OC)C(=O)OC3 [Example 11, 9-(2-(dimethylamino)pyrimidin-5-yl)-6,7-dimethoxynaphtho[2,3-c]furan-1(3H)-one]	309.03	–	> 50	0.16	–
COc1cc2cc3c(c(-c4cnc(N5CCc6sccc6C5)nc4)c2cc1OC)C(=O)OC3 [Example 12, 9-(2-(6,7-dihydrothieno[3,2-c]pyridin-5 (4H)-yl)pyrimidin-5-yl)-6,7-dimethoxynaphtho[2,3-c]furan-1(3H)-one]	60.38	–	> 50	0.83	–
COc1cc2cc3c(c(-c4cnc(N5CCCC(O)C5)nc4)c2cc1OC)C(=O)OC3.Cl (stereo not drawn) [Example 80]	4.21	–	–	–	–
COc1cc2cc3c(c(-c4cnc(N(C)c5ccc(C)c(C)c5)nc4)c2cc1OC)C(=O)OC3.Cl [Example 213, 9-(2-((3,4-dimethylphenyl)(methyl)amino)pyrimidin-5-yl)-6,7-dimethoxynaphtho[2,3-c]furan-1(3H)-one]	2.81	–	–	–	4.41
